Measured values: patent publication US20050064005A1, “Active agent delivery systems including a miscible polymer blend, medical devices, and methods” (priority 2003, published 2005)

Assay: In vitro elution kinetics of dual active agent release from coated stents in PBS at 37° C.
Assay type: physicochemical
Protocol: The in vitro elution kinetics of dual release was carried out in PBS and at 37° C. The stent was crimped on a stent delivery system and then expanded. After expansion, the physical aspects of the stent were noted prior to placing the stent inside a vial containing 3 milliliters (ml) of PBS. The vial was placed in a shaker at 37° C. and at certain time intervals; the whole solution (3 ml) was removed and replaced with fresh PBS. The amount of each active agent in each dual release system was determined by UV-Vis spectrophotometer using wavelengths of 250 nanometers (nm) for mycophenolic acid and 359 nm for sulfasalazine and solving simultaneous equations of active agent mixtures.

SMILES | release kinetics of the active agent in the inner layer (stent system of FIG. 1 with TECOPLAST middle barrier layer (FIG. 3) versus without barrier (FIG. 2), PBS, 37° C.) | release rate of sulfasalazine (from blends of TECOPLAST and TECOPHILIC polyurethanes as outer layer (FIG. 4))
COc1c(C)c2c(c(O)c1C/C=C(\C)CCC(=O)O)C(=O)OC2 [mycophenolic acid] | slowed down significantly | –
O=C(O)c1cc(/N=N/c2ccc(S(=O)(=O)Nc3ccccn3)cc2)ccc1O [sulfasalazine] | – | increased as the percentage of TECOPHILIC polyurethane in the blend increased
